# Laboratory results taken from US8552013B2, “Heterocyclic compounds based on N6-substituted adenine, methods of their preparation, their use for preparation of drugs, cosmetic preparations and growth regulators, pharmaceutical preparations, cosmetic preparations and growth regulators containing these compounds” (USTAV Experimentalni Botaniky Akademie Ved Ceske Republiky, priority 2001, dated 2013).
# Tests used:
# B16-F0 melanoma = assay: Calcein AM cytotoxicity, B16-F0; assay type: cell-based; settings: Mus musculus, B16F0, 72 h, read-out: IC 50, B16-F0
# From the text: One of the parameters used, as the basis for cytotoxicity assays, is the metabolic activity of viable cells. For example, a microtiter assay, which uses the Calcein AM, is now widely used to quantitate cell proliferation and cytotoxicity. For instance, this assay is used in drug screening programs and in chemosensitivity testing. Because only metabolically active cells cleave Calcein AM, these assays detect viable cells exclusively. The quantity of reduced Calcein AM corresponds to the number of vital cells in the culture.
# Human T-lymphoblastic leukemia cell line CEM; promyelocytic HL-60 and monocytic U937 leukemias; breast carcinoma cell lines MCF-7, BT549, MDA-MB-231; glioblastoma U87MG cells; cervical carcinoma cells HELA; sarcoma cells U2OS and Saos2; hepatocellular carcinoma HepG2; mouse fibroblasts NIH3T3; mouse immortalized bone marrow macrophages B2.4 and B10A.4; P388D1 and L1210 leukemia; B16 and B16F10 melanomas were used for routine screening of compounds. The cells were maintained in Nunc/Corning 80 cm^2 plastic tissue culture flasks and cultured in cell culture medium (DMEM with 5 g/l glucose, 2 mM glutamine, 100 U/ml penicillin, 100 μg/ml streptomycin, 10% fetal calf serum and sodium bicarbonate).
# The cell suspensions that were prepared and diluted according to the particular cell type and the expected target cell density (2.500-30.000 cells per well based on cell growth characteristics) were added by pipette (80 μl) into 96/well microtiter plates. Inoculates were allowed a pre-incubation period of 24 hours at 37° C. and 5% CO2 for stabilisation. Four-fold dilutions of the intended test concentration were added at time zero in 20 μl aliquots to the microtiter plate wells. Usually, test compound was evaluated at six 4-fold dilutions. In routine testing, the highest well concentration was […], but it can be the matter of change dependent on the agent. All drug concentrations were examined in duplicates. Incubations of cells with the test compounds lasted for 72 hours at 37° C., in 5% CO2 atmosphere and 100% humidity. At the end of incubation period, the cells were assayed by using the Calcein AM. Ten microliters of the stock solution were pipetted into each well and incubated further for 1 hours. Fluorescence (FD) was measured with the Labsystem FIA Reader Fluoroscan Ascent (UK). The tumour cell survival (GI50) was calculated using the following equitation: TCS═(FDdrug exposed well/mean FDcontrol wells)×100%. The GI50 value, the drug concentration lethal to 50% of the tumour cells, was calculated from the obtained dose response curves (FIG. 1).
# MCF-7 cell line = assay: Apoptosis in MCF-7, Anexin FITC V / propidium iodide staining; assay type: cell-based, human; settings: FIG. 3; 6 h, 20 μM apoptotic cells
# Procedure: A MCF-7, apoptotic cells: 6 h, 12, 20 μM, B MCF-7, secondary necrotic cells (i.e. necrosis following apoptosis), 12 h, 12, 40 μM; C MCF-7, necrotic cells, 24 h, 12, 40 μM. Anexin FITC V (Mol. Probes) and propidium iodide staining: anexin—green, PI—red.
# Analysed using “Olympus image analysis” after treatment of MCF-7 tumour cells by 6-(2-hydroxy-3-methoxybenzylamino)purine. A,B—control cells without treatment; C,D—apoptotic cells (condensation of chromatin); A,C—fluorescence microscopy; B,D—fluorescence image analysis.
# [1] = test system: human diploid fibroblasts (HCA cells); assay: Senescence, beta-galactosidase staining of human diploid fibroblasts; assay type: cell-based
# Method in brief: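 HCA fibroblasts at passages 25, 45 and 80 were fixed for 5 min at room temperature in 2% formaldehyde/0.2% glutaraldehyde. They were then incubated at 37 °C without CO2 for 1 to 16 hours with X-gal 1 mg/ml, 5 mM ferri- and ferrocyanide and 2 mM MgCl2 in citric/phosphate buffer, pH 6.0. Blue-stained cells were scored.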
# [2] = test system: Triticum aestivum cv. Hereward leaf tips; assay: Retention of chlorophyll in excised wheat leaf tips; assay type: in vivo; settings: chlorophyll retention at the concentration with highest activity
# Method in brief: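 Tips of first leaves from 7-day wheat (cv. Hereward) seedlings kept on compound solutions (10^−8 to 10^−4 M, from DMSO stock) for 96 h in the dark at 25 °C. Chlorophyll extracted in 80% ethanol at 80 °C and read at 665 nm. Activity at the best concentration expressed relative to 10^−4 M BAP (100%), five replicates.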
# [3] = test system: Amaranthus caudatus cotyledon/hypocotyl explants; assay: Amaranthus bioassay, betacyanin content; assay type: in vivo; settings: betacyanin content at the concentration with highest activity
smiles,measurement,setting,value
COc1cccc(CNc2ncnc3nc[nH]c23)c1O [6-(2-hydroxy-3-methoxybenzylamino)purine],IC50,B16-F0 melanoma,69 µM
same,apoptosis in MCF-7 tumour cells,MCF-7 cell line,induced apoptosis
same,SENESCENT CELLS (%) HCA25,[1]; passage 25,4%
same,SENESCENT CELLS (%) HCA45,[1]; passage 45,3%
same,SENESCENT CELLS (%) HCA80,[1]; passage 80,20%
same,Activity (%) [10^−4 mol · l^−1 BAP = 100%],[2],34 (±5) %
same,activity (%) [10^−5 mol · l^−1 BAP = 100%],[3],19 (±3) %
